Test results: publication PMC9900472 (ACS chemical biology, 2022)

Key:
B. malayi iPGM = B. malayi iPGM (Brugia malayi, UniProt Q4VWF8); experiment: luminescent coupled-enzyme ATP-quantifying iPGM assay, B. malayi iPGM; type: biochemical
H. pylori iPGM = biological target: T1, H. pylori iPGM (Helicobacter pylori, UniProt B5Z7X6); experiment: biochemical
T1 sequence (B5Z7X6 1-491): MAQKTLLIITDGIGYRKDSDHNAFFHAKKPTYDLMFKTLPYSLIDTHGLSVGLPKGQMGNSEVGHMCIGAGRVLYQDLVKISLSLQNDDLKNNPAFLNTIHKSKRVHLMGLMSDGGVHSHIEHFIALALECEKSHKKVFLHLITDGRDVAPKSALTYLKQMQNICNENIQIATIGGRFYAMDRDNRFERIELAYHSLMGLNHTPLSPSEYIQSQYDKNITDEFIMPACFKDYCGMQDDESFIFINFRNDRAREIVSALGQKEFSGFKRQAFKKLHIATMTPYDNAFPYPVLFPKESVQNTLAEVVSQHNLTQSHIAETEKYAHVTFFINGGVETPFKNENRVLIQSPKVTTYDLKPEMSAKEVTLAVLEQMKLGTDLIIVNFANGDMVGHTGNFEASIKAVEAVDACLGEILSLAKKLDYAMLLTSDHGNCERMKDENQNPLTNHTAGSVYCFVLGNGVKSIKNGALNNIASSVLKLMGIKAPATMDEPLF

C. elegans iPGM = biological target: T2, C. elegans iPGM (Caenorhabditis elegans, UniProt G5EFZ1); experiment: luminescent coupled-enzyme ATP-quantifying iPGM assay, C. elegans iPGM; type: biochemical
T2 sequence (G5EFZ1 1-539): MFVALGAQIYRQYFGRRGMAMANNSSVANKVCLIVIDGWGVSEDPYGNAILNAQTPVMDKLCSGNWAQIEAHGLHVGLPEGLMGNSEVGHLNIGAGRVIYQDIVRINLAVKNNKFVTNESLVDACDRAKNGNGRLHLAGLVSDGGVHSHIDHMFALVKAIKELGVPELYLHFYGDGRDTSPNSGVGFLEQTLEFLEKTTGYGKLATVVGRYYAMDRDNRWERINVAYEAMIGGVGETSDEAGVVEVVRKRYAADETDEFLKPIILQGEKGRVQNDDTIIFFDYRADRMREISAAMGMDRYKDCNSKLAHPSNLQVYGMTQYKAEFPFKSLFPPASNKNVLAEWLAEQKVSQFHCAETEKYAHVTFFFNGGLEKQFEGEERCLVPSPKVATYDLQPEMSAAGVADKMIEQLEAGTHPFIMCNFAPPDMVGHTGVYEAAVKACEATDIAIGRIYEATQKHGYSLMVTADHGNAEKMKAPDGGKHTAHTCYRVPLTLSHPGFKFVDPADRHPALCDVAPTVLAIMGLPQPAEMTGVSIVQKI

W. bancrofti iPGM = biological target: T3, W. bancrofti iPGM (Wuchereria bancrofti, UniProt B1P0R4); experiment: biochemical
T3 sequence (B1P0R4 1-515): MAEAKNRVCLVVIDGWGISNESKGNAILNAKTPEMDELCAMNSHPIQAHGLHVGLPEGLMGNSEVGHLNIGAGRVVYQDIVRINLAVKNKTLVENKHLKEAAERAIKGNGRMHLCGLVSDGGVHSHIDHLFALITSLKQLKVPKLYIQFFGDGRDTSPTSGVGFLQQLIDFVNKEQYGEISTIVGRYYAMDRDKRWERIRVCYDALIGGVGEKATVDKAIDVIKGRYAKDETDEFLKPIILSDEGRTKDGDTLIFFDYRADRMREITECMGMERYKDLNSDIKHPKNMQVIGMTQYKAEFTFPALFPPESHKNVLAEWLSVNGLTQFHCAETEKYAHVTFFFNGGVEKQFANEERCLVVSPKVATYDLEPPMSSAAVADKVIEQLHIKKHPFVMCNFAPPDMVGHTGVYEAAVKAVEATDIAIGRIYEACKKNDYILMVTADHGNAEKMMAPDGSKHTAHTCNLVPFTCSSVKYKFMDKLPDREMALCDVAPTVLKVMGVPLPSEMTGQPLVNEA

E. coli iPGM = E. coli iPGM (Escherichia coli, UniProt P37689); experiment: luminescent coupled-enzyme ATP-quantifying iPGM assay, E. coli iPGM; type: biochemical
Sequence of E. coli iPGM (P37689 whole entry): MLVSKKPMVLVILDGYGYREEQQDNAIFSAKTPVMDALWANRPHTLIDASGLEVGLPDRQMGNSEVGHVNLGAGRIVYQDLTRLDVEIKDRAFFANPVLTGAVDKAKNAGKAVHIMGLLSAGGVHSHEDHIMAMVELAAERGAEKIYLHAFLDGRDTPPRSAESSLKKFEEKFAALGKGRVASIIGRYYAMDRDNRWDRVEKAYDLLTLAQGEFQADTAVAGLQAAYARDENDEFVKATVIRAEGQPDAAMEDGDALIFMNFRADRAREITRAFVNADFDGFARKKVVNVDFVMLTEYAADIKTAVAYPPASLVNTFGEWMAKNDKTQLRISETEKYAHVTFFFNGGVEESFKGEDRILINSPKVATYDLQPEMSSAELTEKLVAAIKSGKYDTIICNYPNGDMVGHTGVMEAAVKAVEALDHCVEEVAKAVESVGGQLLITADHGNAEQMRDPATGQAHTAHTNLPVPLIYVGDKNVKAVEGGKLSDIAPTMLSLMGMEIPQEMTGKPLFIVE

Sequence of B. malayi iPGM (Q4VWF8 whole entry): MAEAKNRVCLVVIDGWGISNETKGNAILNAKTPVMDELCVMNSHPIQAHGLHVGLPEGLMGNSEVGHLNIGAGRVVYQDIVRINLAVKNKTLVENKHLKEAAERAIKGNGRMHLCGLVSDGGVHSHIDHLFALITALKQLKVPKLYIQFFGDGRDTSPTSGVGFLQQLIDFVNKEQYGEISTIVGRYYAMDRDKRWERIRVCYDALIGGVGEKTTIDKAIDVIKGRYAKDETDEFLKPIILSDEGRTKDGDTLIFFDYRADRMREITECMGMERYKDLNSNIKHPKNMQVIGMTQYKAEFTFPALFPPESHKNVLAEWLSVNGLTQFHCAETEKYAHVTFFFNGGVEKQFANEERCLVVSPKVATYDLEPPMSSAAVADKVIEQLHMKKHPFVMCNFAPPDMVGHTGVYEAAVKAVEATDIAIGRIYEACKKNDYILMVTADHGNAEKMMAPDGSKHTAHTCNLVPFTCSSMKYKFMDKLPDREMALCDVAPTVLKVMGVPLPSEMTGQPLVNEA

CC(C)C[C@H](NC(=O)[C@H](Cc1ccc(O)cc1)NC(=O)[C@@H]1CSCC(=O)N[C@H](Cc2ccc(O)cc2)C(=O)N[C@@H](CC(=O)O)C(=O)N[C@@H](Cc2ccc(O)cc2)C(=O)N2CCC[C@H]2C(=O)NCC(=O)N[C@@H](CC(=O)O)C(=O)N[C@@H](Cc2ccc(O)cc2)C(=O)N1)C(=O)N[C@@H](Cc1ccc(O)cc1)C(=O)NCC(=O)N[C@H](C(=O)N[C@@H](CS)C(N)=O)[C@@H](C)O [Ce-2]
AC50 (B. malayi iPGM): 2.69 nM | AC50 (H. pylori iPGM): 3630 nM | AC50 (C. elegans iPGM): 2.45 nM | AC50 (W. bancrofti iPGM): 2.34 nM | AC50 (E. coli iPGM): 316 nM
